From patent publication US11433043B2, “Compounds useful for increasing neurogenesis in neural tissue” (ALFASIGMA S.P.A., priority 2010, dated 2022)

Key:
Assay type in all cases: cell-based
[1] = tested on: adult neural progenitors taken from the mouse hippocampus; test: Differentiation of stem cells/adult neural progenitors from hippocampal neurospheres (MAP-2/nestin immunofluorescence); settings: for NPC neuronal differentiation: compared to ALC 1 mM
Protocol: The adult stem cells from the mouse hippocampus were prepared and maintained in culture in the form of neurospheres as described previously in Denis-Donini S. et al. J. Neuroscience, 2008. In particular, male CD1 mice aged 3-5 months were used, in accordance with the animal experimentation laws.
For differentiation, the cells derived from the hippocampal neurospheres with passages of between 4-12 were dissociated and plated on Lab-Tek 8-well permanox chamber slides (Nunc, Wiesbaden, Germany) previously coated with mouse laminin (2.5 μg/cm^2 Sigma) at a density of about 40,000 cells/cm^2. The composition of the differentiation medium was: Neurobasal-A, supplement B27, glutamine 2 mM, 100 U/100 μg/ml penicillin/streptomycin. ALC (0.1-2 mM) or a vehicle was added to the medium. After 24 hours the cells were washed and fixed in 4% paraformaldehyde for 20 min for subsequent analysis using immunofluorescence.
The cells fixed after differentiation in the presence of ALC, a vehicle or reference drugs were washed three times in PBS and permeabilized by incubation for 5 min, at room temperature with PBS supplemented with 0.48% (vol/vol) Triton X-100 (Sigma). Subsequently the cells were incubated with the following primary antibodies: anti-nestin mouse monoclonal antibody, 1:1200, Abcam, Cambridge, Mass.); anti-MAP-2 (rabbit polyclonal antibody, 1:600, Chemicon). The cells were incubated in the primary antibody for 150 min at room temperature in a solution containing 8% (vol/vol) of goat serum. The secondary antibodies used were: Alexa Fluor 594-conjugated donkey anti mouse antibody (1:1400, Molecular Probes), Alexa Fluor 488-conjugated donkey anti-rabbit (1:1 600, Molecular Probes), in a solution containing 16% (vol/vol) of donkey serum. The nuclei were then counterstained with Draq5 (1:2000, Alexis Biochemicals) prepared in PBS. The slides were assembled using Fluorescent Mounting Medium (DakoCytomation, Glostrup).
In each experiment, the cells of at least 5 fields/well (corresponding to about 150 cells), were quantified if positive to one or more phenotypical markers used to distinguish between them: undifferentiated stem progenitor cells, immature neurons, mature neurons. The cells were counted by an operator (blind to the nature of the treatment undergone by the cells) using an ECLIPSE E600 fluorescence microscope (NIKON, Calenzano, Italy) with a 60× lens. All experiments were conducted on at least five cell preparations, with each experimental point in triplicate.

[2] = tested on: adult neural progenitors taken from the mouse hippocampus; test: Cell survival: apoptotic nuclei (Hoechst staining) after differentiation
Protocol: (§1) After differentiation in the presence of ALC, a vehicle or reference drugs, the medium was collected and the activity of the LDH enzyme was determined using the Cytotoxicity Detection Kit LDH (Roche Applied Science), following the manufacturer's instructions, to quantify death due to necrosis. In parallel, to assess also apoptotic death, after fixation, the cell nuclei were marked with 0.8 ng/ml Hoechst (Sigma-Aldrich) diluted in PBS. The apoptic nuclei were counted by an operator (blind to the nature of the treatment undergone by the cells) using an ECLIPSE E600 fluorescence microscope (NIKON, Calenzano, Italy) with a 60× lens. All experiments were conducted on at least five cell preparations, with each experimental point in triplicate.

[3] = tested on: adult neural progenitors taken from the mouse hippocampus; test: Cell survival: LDH enzyme activity in culture medium (necrosis)
Protocol: as §1

[4] = Example 1, ALC 0.1-2 mM, 24 hours, FIG. 5
[5] = at the concentrations that induced neurogenesis
[6] = Example 2, 0.3-1 mM, lesser extent compared to ALC 1 mM, FIG. 6

SMILES	NPC neuronal differentiation ([1]; Example 2, 0.3-1 mM, FIG. 6)	percentage of apoptotic nuclei ([2]; ALC 100 μM, 300 μM or 1 mM, FIG. 3)	percentage of MAP-2 positive cells in culture ([1]; Example 1, ALC 0.1-2 mM, 24 hours differentiation, concentration-dependent, FIG. 1)	number of immature neurons (MAP2 positive, nestin positive) [1, 4]	number of progenitor cells (MAP2 negative, nestin negative) [1, 4]	number of stem/progenitor cells (MAP2 negative, nestin positive) [1, 4]	number of mature neurons (MAP2 positive, nestin negative) ([1]; Example 1, ALC 0.1-2 mM, 24 hours, concentration-dependent, FIG. 5)	activity of the LDH enzyme, an index of necrosis, in the culture medium ([3]; ALC 100 μM, 300 μM or 1 mM, FIG. 4)	percentage of apoptotic nuclei [2, 5]	number of a subpopulation of undifferentiated stem/neural progenitors [1, 6]	number of immature neurons [1, 6]	number of mature neurons [1, 6]	activity of the LDH enzyme, an index of necrosis [3, 5]
C[N+](C)(C)C[C@H](O)CC(=O)[O-] [LC, L-carnitine]	no effect	–	–	–	–	–	–	–	–	–	–	–	–
CC(=O)O[C@H](CC(=O)[O-])C[N+](C)(C)C [ALC, acetyl L-carnitine]	–	did not reduce	increase	increased	decreased	no effect	increased	did not reduce	–	–	–	–	–
CCC(=O)O[C@H](CC(=O)[O-])C[N+](C)(C)C [PLC, propionyl L-carnitine]	less potent activator	–	–	–	–	–	–	–	did not reduce	reduced	increased	increased	did not reduce
